As a reminder, the IC50 is the point on the concentration scale where inhibition reaches its midpoint. What is called Ki is a dissociation constant, usually derived from enzyme kinetics or from competition with a known ligand. The inhibition in vivo is how much of the control response was suppressed. In general, clearance refers to the rate of elimination divided by the concentration. By bioavailability is commonly meant the share of a dose that reaches the circulation, judged against a reference dose that is usually intravenous. The term half-life denotes the time needed for the level to fall by half in the phase considered. The Vd is the apparent volume that relates the amount in the body to the concentration in plasma or blood. Broadly, the Cmax is the highest concentration seen after dosing.

Calls of active or inactive are those of the source. Bounds are passed on as bounds.

The record followed here is ChEMBL document CHEMBL1681710, “Pyridyl amides as potent inhibitors of T-type calcium channels” (Bioorg Med Chem Lett, 2011).

Data set [1] deals with T1, Voltage-dependent T-type calcium channel subunit alpha-1I (Homo sapiens, UniProt Q9P0X4). Briefly: Antagonist activity at Cav3.3 alpha1i expressed in HEK293 cells by depolarized FLIPR assay. The data set is classed as functional, cell-based.
A short description of data set [2]: Binding affinity to L-type Ca2+ channel.
Data set [3] has as its target Voltage-gated inwardly rectifying potassium channel KCNH2 (Homo sapiens, UniProt Q12809). The data set can be described thus: Inhibition of human ERG.
In data set [4] the target is T1, Voltage-dependent T-type calcium channel subunit alpha-1I. The data set can be described thus: Binding affinity to Cav3.3 alpha1i.
Data set [5] concerns Rattus norvegicus. Briefly: Antiepileptic activity in WAG/Rij rat seizure model assessed as reduction in total seizure time measured for 4 hrs at 10 mg/kg, po by radiotelemetric physiologic monitor. The data set is classed as functional.
Data set [6] can be described thus: Plasma clearance in rat at 2 mg/kg, iv.
In data set [7] the target is Voltage-dependent R-type calcium channel subunit alpha-1E (Homo sapiens, UniProt Q15878). Briefly: Inhibition of R-type Cav2.3 at -80 mV holding potential by tandard voltage-clamp electrophysiology assay.
The target in data set [8] is Voltage-dependent L-type calcium channel subunit alpha-1C (Homo sapiens, UniProt Q13936). Briefly: Inhibition of L-type Cav1.2 at -80 mV holding potential by tandard voltage-clamp electrophysiology assay.
Data set [9] has as its target Voltage-dependent T-type calcium channel subunit alpha-1H (Homo sapiens, UniProt O95180). Briefly: Inhibition of Cav3.2 alpha1H at -80 mV holding potential by tandard voltage-clamp electrophysiology assay.
The nature of data set [10]: Bioavailability in dog at 0.5 mg/kg, iv. The data set is classed as ADME, organism-based, Canis lupus familiaris. As to conditions: in vivo.
Data set [11] addresses Voltage-dependent N-type calcium channel subunit alpha-1B (Homo sapiens, UniProt Q00975). The data set can be described thus: Inhibition of N-type Cav2.2 at -80 mV holding potential by tandard voltage-clamp electrophysiology assay.
The nature of data set [12]: Plasma clearance in dog at 0.5 mg/kg, iv. On the set-up: dose 0.5 mg/kg, route intravenous. Type of data set: ADME, organism-based, Canis lupus familiaris.
In data set [13] the test system is Rattus norvegicus. Briefly: Effect on sleep architecture in rat assessed as reduction in REM sleep at 3 mg/kg, po up to 4 hrs. The data set is classed as functional, organism-based. On the set-up: dose 3 mg/kg.
The target of data set [14] is Voltage-dependent T-type calcium channel subunit alpha-1G (Homo sapiens, UniProt O43497). Briefly: Inhibition of Cav3.1 alpha1G at -80 mV holding potential by tandard voltage-clamp electrophysiology assay.
A short description of data set [15]: Half life in rhesus monkey at 0.5 mg/kg, iv. Also on record: dose 0.5 mg/kg, route intravenous. Type of data set: ADME, organism-based, Macaca mulatta. As to conditions: in vivo.
The nature of data set [16]: Half life in dog at 0.5 mg/kg, iv. The settings on record: in vivo. Type of data set: ADME, organism-based, Canis lupus familiaris. On the set-up: dose 0.5 mg/kg, route intravenous.
Data set [17] can be described thus: Volume of distribution at steady state in dog at 0.5 mg/kg, iv. Also on record: dose 0.5 mg/kg, route intravenous. As to conditions: in vivo. The data set is classed as ADME, organism-based, Canis lupus familiaris.
The nature of data set [18]: Plasma clearance in rhesus monkey at 0.5 mg/kg, iv. The data set is classed as ADME, organism-based, Macaca mulatta. Also on record: dose 0.5 mg/kg, route intravenous.
Data set [19] has as its target Voltage-dependent P/Q-type calcium channel subunit alpha-1A (Homo sapiens, UniProt O00555). The data set can be described thus: Inhibition of P/Q-type Cav2.1 at -80 mV holding potential by tandard voltage-clamp electrophysiology assay.
Data set [20] in a line: Bioavailability in rat at 2 mg/kg, iv and 10 mg/kg, po. The settings on record: in vivo.
Data set [21] can be described thus: Cmax in non-implanted rat plasma after 1.2 hrs. Type of data set: ADME, organism-based.
The subject of data set [22] is Rattus norvegicus. Briefly: Effect on sleep architecture in rat assessed as increase in delta sleep at 3 mg/kg, po up to 4 hrs. Type of data set: functional, organism-based. On the set-up: dose 3 mg/kg.
Data set [23] relates to Rattus norvegicus. Briefly: Effect on sleep architecture in po dosed rat assessed as reduction in active awake up to 4 hrs. The data set is classed as functional, organism-based.
Data set [24] is described as follows: Volume of distribution at steady state in rat at 2 mg/kg, iv. As to conditions: in vivo.
Data set [25] can be described thus: Volume of distribution at steady state in rhesus monkey at 0.5 mg/kg, iv. The data set is classed as ADME, organism-based, Macaca mulatta. Also on record: dose 0.5 mg/kg, route intravenous. The settings on record: in vivo.
For a further data set, the species on record is Mus musculus. Briefly: Inhibition of high-fat diet-induced weight gain in mouse. Type of data set: functional, organism-based.
Data set [26] in a line: Bioavailability in rhesus monkey at 0.5 mg/kg, iv. The data set is classed as ADME, organism-based, Macaca mulatta. As to conditions: in vivo.
A short description of data set [27]: Half life in rat at 2 mg/kg, iv. The settings on record: in vivo.
The target in data set [28] is T1, Voltage-dependent T-type calcium channel subunit alpha-1I. Briefly: Antagonist activity at Cav3.3 alpha1i expressed in HEK293 cells at -100 mV by standard voltage-clamp electrophysiology assay. The data set is classed as functional, cell-based.
Data set [29] has as its system Rattus norvegicus. Briefly: Effect on sleep architecture in rat assessed as reduction in active awake at 3 mg/kg, po up to 4 hrs. Type of data set: functional, organism-based. On the set-up: dose 3 mg/kg.

T1 sequence (Q9P0X4 whole entry): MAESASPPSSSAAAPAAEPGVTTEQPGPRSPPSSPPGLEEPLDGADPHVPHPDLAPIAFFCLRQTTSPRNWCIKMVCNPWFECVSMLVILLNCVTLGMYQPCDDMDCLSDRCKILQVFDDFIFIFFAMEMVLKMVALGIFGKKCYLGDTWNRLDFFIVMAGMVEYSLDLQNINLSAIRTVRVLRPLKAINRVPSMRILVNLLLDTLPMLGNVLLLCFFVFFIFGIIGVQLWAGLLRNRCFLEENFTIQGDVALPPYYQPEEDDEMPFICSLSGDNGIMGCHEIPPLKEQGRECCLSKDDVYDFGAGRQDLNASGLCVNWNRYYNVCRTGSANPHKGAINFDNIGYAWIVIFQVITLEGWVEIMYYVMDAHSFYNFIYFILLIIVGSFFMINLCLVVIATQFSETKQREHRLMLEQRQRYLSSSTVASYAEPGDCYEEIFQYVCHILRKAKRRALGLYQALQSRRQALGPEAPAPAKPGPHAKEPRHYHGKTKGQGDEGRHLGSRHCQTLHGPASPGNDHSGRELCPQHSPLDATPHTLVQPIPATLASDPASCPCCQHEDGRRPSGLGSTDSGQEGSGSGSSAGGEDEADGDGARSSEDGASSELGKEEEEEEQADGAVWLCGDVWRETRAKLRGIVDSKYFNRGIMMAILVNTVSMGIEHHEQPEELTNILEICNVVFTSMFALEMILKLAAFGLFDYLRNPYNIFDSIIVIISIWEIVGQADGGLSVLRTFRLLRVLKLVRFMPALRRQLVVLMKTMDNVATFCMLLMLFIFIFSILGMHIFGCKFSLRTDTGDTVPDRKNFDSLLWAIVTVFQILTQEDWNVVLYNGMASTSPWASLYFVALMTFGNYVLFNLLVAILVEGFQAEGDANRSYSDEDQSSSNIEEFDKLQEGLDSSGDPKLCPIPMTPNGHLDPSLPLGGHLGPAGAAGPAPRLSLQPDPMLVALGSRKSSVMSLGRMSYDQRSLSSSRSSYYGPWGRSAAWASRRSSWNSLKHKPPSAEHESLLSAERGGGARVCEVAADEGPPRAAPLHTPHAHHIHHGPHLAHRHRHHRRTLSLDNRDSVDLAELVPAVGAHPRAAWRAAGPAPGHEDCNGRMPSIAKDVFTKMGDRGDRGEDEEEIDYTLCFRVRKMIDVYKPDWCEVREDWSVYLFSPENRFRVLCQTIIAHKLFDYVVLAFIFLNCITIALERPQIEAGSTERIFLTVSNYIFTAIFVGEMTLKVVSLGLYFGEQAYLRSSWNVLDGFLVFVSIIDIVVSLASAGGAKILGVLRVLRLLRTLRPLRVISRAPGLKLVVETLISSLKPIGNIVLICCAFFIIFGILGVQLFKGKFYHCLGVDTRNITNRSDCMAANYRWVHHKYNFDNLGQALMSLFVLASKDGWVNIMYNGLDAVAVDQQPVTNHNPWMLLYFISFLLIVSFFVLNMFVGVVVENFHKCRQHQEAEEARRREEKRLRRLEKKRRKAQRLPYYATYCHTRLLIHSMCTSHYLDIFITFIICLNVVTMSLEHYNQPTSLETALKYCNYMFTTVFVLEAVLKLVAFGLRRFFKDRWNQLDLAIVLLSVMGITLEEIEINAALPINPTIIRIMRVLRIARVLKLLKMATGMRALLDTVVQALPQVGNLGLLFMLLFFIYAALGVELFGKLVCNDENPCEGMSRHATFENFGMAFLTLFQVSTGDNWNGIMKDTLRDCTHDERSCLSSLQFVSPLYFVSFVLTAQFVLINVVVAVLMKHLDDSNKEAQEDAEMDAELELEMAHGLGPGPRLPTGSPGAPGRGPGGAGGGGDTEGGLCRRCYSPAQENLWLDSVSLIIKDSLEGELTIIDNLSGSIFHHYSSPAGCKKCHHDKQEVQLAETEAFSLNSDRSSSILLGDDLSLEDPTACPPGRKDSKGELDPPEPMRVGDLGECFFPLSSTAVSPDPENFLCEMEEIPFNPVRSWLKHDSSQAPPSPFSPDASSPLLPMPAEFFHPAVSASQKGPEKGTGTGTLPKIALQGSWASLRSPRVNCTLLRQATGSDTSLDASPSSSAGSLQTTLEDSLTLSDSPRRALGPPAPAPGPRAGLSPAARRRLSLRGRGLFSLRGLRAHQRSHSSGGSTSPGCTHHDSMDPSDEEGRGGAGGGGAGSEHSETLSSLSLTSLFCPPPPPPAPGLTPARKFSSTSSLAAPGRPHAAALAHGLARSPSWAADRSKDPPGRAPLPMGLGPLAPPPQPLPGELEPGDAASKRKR
Chain of Voltage-gated inwardly rectifying potassium channel KCNH2 (Q12809 whole entry): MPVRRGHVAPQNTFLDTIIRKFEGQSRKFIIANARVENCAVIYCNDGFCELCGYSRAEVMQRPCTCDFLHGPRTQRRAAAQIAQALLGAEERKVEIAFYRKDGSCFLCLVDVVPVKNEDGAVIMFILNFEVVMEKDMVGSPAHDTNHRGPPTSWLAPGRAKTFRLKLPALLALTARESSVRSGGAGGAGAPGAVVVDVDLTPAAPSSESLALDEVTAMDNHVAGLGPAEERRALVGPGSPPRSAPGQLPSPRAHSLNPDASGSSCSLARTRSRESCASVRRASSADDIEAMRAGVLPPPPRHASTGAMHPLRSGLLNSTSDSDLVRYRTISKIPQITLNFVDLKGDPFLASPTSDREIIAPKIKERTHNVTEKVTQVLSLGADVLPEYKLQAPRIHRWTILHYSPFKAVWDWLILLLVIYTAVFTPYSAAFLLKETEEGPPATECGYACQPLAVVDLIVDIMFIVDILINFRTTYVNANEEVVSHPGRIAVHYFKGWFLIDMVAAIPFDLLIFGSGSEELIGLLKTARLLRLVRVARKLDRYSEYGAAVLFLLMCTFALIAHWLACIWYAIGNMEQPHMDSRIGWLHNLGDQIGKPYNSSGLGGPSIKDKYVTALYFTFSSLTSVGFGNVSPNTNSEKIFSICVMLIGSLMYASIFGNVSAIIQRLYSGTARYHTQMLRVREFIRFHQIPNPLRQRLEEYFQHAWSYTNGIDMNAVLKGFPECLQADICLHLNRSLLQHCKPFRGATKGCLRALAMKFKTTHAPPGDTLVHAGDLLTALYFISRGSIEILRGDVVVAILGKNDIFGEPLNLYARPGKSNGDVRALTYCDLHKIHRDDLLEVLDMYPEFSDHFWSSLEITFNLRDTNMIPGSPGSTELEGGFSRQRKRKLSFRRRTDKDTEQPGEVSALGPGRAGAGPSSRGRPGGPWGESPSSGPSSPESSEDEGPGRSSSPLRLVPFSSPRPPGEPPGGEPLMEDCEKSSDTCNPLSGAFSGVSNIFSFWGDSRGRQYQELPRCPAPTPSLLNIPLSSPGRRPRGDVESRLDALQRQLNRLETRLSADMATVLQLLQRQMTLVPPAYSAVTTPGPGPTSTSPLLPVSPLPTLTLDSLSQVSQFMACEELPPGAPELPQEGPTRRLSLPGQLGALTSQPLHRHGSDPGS

For `COc1ccc([C@@H](C)NC(=O)Cc2ccccc2Cl)nc1`, the IP in data set [1] was more than 5000 nM.
Still for that read-out and setting: next, `CC(NC(=O)Cc1ccc(C(C)(C)C)cc1)c1ccncc1` (racemic): more than 10000 nM; `COc1ccc(CC(=O)N[C@H](C)c2ccc(OC)cn2)cc1`: 1740 nM; `COc1ccc([C@@H](C)NC(=O)Cc2ccc(S(C)(=O)=O)cc2)nc1`: more than 10000 nM.
Regarding `COc1ccc([C@@H](C)NC(=O)Cc2ccc(C(C)(C)C)cc2)nc1`, the IC50 in data set [2] and in data set [3] was more than 10 µM each time. Also, the IP in data set [1] came out at 22 nM. Also, in data set [4], the Ki came out at 0.005 µM. Besides, the inhibition in vivo at 10 mg/kg in the data set on Rattus norvegicus [5] was determined as 49%.
Turning to `C[C@@H](NC(=O)Cc1ccc(C(C)(C)C)cc1)c1ccc(Cl)cc1`, the IP in data set [1] stood at 123 nM.
In the case of `CC(NC(=O)Cc1ccc(C(C)(C)C)cc1)c1ccccn1` (racemic), the IP in [1] stood at 427 nM.
The same measure, in the same setting: as for `CC(C)(C)c1ccc(CC(=O)NC(C)(C)c2ccccc2)cc1`, the figure is 5480 nM; as for `CC(C)c1ccc(CC(=O)N[C@H](C)c2ccc(OCC(F)(F)F)cn2)cc1`, 5 nM.
The same measure, in the same setting: as for `COc1ccc([C@@H](C)NC(=O)Cc2ccc(C3CC3)cc2)nc1`, the figure is 70 nM.
Consider `CCCOc1ccc([C@@H](C)NC(=O)Cc2ccc(C3CC3)cc2)nc1`, for which, in data set [1], the IP was 11 nM.
The same measure, in the same setting: as for `CC(C)c1ccc(CC(=O)N[C@H](C)c2ccc(OCc3ccccc3)cn2)cc1`, the figure is 16 nM; as for `COc1ccc([C@@H](C)NC(=O)Cc2ccc(F)cc2)nc1`, more than 10000 nM; as for `CC(NC(=O)Cc1ccc(C(C)(C)C)cc1)c1ccccc1Cl` (racemic), 332 nM.
Same read-out and setting: as for `COc1ccc([C@@H](C)NC(=O)Cc2ccc(Oc3ccccc3)cc2)nc1`, the figure is 439 nM; as for `COc1ccc([C@@H](C)NC(=O)Cc2cccc(Cl)c2)nc1`, 2780 nM; as for `C[C@@H](NC(=O)Cc1ccc(C(C)(C)C)cc1)c1ccccc1`, 235 nM.
The same measure, in the same setting: next, `COc1ccc([C@@H](C)NC(=O)Cc2ccccc2)nc1`: more than 10000 nM.
As to `COc1ccc([C@@H](C)NC(=O)Cc2ccc(C(C)(C)C)cc2)cc1`, the IP in [1] was determined as 146 nM.
On to `COc1ccc([C@@H](C)NC(=O)Cc2ccc(C#N)cc2)nc1`, for which the IP in data set [1] is more than 5000 nM.
Still for that read-out and setting: next, `COc1ccc([C@@H](C)NC(=O)Cc2ccc(Cl)cc2)nc1`: 1330 nM; `COC(=O)c1ccc(CC(=O)N[C@H](C)c2ccc(OC)cn2)cc1`: 1450 nM.
As for `COc1cccc([C@@H](C)NC(=O)Cc2ccc(C(C)(C)C)cc2)c1`, the IP in data set [1] was 146 nM.
Still for that read-out and setting: as for `CCCOc1ccc([C@@H](C)NC(=O)Cc2ccc(C(C)C)cc2)nc1`, the figure is 10 nM; as for `CC(NC(=O)Cc1ccc(C(C)(C)C)cc1)c1cccnc1` (racemic), 5380 nM.
The same measure, in the same setting: as for `C[C@@H](NC(=O)Cc1ccc(C2CC2)cc1)c1ccc(OCc2ccccc2)cn1`, the figure is 21 nM.
In the case of `C[C@@H](NC(=O)Cc1ccc(C2CC2)cc1)c1ccc(OCC(F)(F)F)cn1`, the clearance in [6] worked out at 6 mL/min/kg; in data set [12], 0.9 mL/min/kg; in data set [18], 17 mL/min/kg. Besides, the IC50 in [7] was more than 30 µM; in data set [8], more than 30 µM; in data set [9], 0.092 µM; in data set [11], more than 30 µM; in [14], 0.089 µM; in data set [2] it was more than 10 µM. The IC50 is more than 30 µM in data set [19], more than 10 µM in [3] and 3.7 µM in data set [28]. Also, the bioavailability is 43% in [10], 68% in [20] and 7% in data set [26]. Also, the outcome with Rattus norvegicus [13], with Rattus norvegicus [22] and in the data set with Rattus norvegicus [29] was Active. Also, the half-life in [15] is 0.9 h; in data set [16] it was 11 h; in [27], 1.5 h. Also, the distribution volume (Vd) is 0.7 L/kg in data set [17], 0.8 L/kg in data set [24] and 0.9 L/kg in data set [25]. Also, the IP in data set [1] was found to be 6 nM. Moreover, the Cmax in data set [21] was 4 µM. Further, the Activity entry with Rattus norvegicus [23] is “Dose-dependent effect”. In addition, the Ki in [4] was 0.0012 µM. Moreover, in the data set filed under Mus musculus, the inhibition entry was “Active”. Also, the inhibition in vivo at 10 mg/kg with Rattus norvegicus [5] came to 87%.
On to `CC(C)c1ccc(CC(=O)N[C@H](C)c2ccc(O)cn2)cc1`, for which the IP in [1] is 920 nM.
Still for that read-out and setting: next, `C[C@@H](NC(=O)Cc1ccc(C(C)(C)C)cc1)c1ccc(Cl)cn1`: 30 nM; `COc1ccc([C@@H](C)NC(=O)Cc2ccc(Cl)c(Cl)c2)nc1`: 252 nM.
For `C[C@H](NC(=O)Cc1ccc(C(C)(C)C)cc1)c1ccccc1`, the IP in data set [1] came to 4680 nM.
`C[C@H](c1ccccc1)N(C)C(=O)Cc1ccc(C(C)(C)C)cc1`: in data set [1], the IP was more than 10000 nM.
Consider `C[C@@H](NC(=O)Cc1ccc(C2CC2)cc1)c1ccc(O)cn1`, for which the IP in [1] came to 1720 nM.
Still for that read-out and setting: next, `COc1ccc([C@@H](C)NC(=O)Cc2ccc(C(C)C)cc2)nc1`: 45 nM.
Regarding `COc1ccc([C@@H](C)NC(=O)Cc2ccc(C(C)(C)O)cc2)nc1`, the IP in data set [1] was determined as 1130 nM.
